Test results as given in patent publication US20120301866A1, “LIQUID FORMULATION HAVING DISSOLVED GASES USEFUL FOR PRESERVING BIOLOGICAL MATERIAL” (L'Air Liquide, Société Anonyme pour I'Etude et …, priority 2010, published 2012).
Entries after “also recorded” stand apart in the source; their conditions may differ.

How the values were obtained:
Type in all cases: in vivo
rat kidneys [1] = assay: Immunohistochemistry of transplanted rat kidneys (anti-active caspase-3, anti-CD10); details: day 14 after transplantation; for active caspase-3 expression (immunohistochemistry): marker for apoptosis
Description: In order to evaluate the renal graft preservation properties of argon or other gases, rat kidneys were removed and stored in a gas-saturated liquid solution according to the present invention. After six hours of organ preservation at a temperature of 4° C. and at atmospheric pressure, the rat kidneys are transplanted and the survival time, renal function and reperfusion/ischemia injuries are studied by means of biochemical and histological analyses. Immunodetections were carried out on serial cryostat sections 5 μm thick, using certain specific antibodies, i.e. anti-active caspase-3 and anti-CD10. The kidneys of a normal rat are used as control. After having been rinsed, the sections are incubated for 30 minutes with biotinylated secondary antibodies and they are then visualized using avidin-biotin peroxidase.

rat kidneys [2] = assay: Rat kidney transplantation after cold storage in gas-saturated Celsior solution: renal function (creatinine clearance, urinary albumin); details: for overall effect on the preservation of a renal graft: compared with the other experimental groups; for level of albumin in the urine (urinary albumin): kidney stored 6 h at 4 °C, atmospheric pressure, in gas-saturated Celsior, days 7 and 14 after transplantation
Description: In accordance with the present invention, argon gas was dissolved in a liquid organ preservation solution available on the market, i.e. the CELSIOR solution, the composition of which is given in table 1, in order to obtain a liquid formulation in accordance with the present invention.
For the purposes of comparison, other gases, i.e. xenon, air and nitrogen, were dissolved in the same type of liquid solution.
(§1) In order to evaluate the renal graft preservation properties of argon or other gases, rat kidneys were removed and stored in a gas-saturated liquid solution according to the present invention.
(§2) After six hours of organ preservation at a temperature of 4° C. and at atmospheric pressure, the rat kidneys are transplanted and the survival time, renal function and reperfusion/ischemia injuries are studied by means of biochemical and histological analyses.
On days 0 (pretransplantation), 7 and 14 (after transplantation), biochemical analyses, i.e. creatinine clearance and urinary albumin, are carried out in the manner described by M. Yin et al., in “Carolina rinse solution minimizes kidney injury and improves graft function and survival after prolonged cold ischemia.” Transplantation 2002; 73:1410-1420).
Creatinine clearance is a parameter that is used to evaluate renal function. A high clearance corresponds to good renal function, while the presence of albumin in the urine (urinary albumin) indicates renal damage since, normally, there is no albumin in the urine when the kidney is normal.

rat kidneys [3] = assay: Histology of transplanted rat kidneys (hematoxylin-eosin-safran, optical microscopy); details: day 14 after transplantation; kidney stored 6 h at 4 °C in gas-saturated solution
Description: as §1, §2
On day 14 after transplantation, the kidneys are removed, weighed and cut into blocks. The kidneys are then fixed with a buffered 4% formaldehyde infusion for 24 h and they are embedded in paraffin. Five-micrometer sections are obtained from the blocks and stained with hematoxylin-eosin-safran in order to examine them by optical microscopy.

| Compound | active caspase-3 expression (immunohistochemistry) (rat kidneys [1]) | CD10 expression (immunohistochemistry) (rat kidneys [1]; weak CD10 expression corresponds to a damaged kidney) | overall effect on the preservation of a renal graft (rat kidneys [2]) | level of albumin in the urine (urinary albumin) (rat kidneys [2]) | histological observations of transverse kidney sections (rat kidneys [3]) |
| --- | --- | --- | --- | --- | --- |
| [Ar] [argon] | discrete and focal losses | discrete and focal losses of CD 10 expression | very positive and advantageous effects | much lower than the levels of albumin (urinary albumin) obtained with the other transplanted kidneys | the architectural integrity of the kidney is preserved without any obvious glomerular modification; also recorded: intact normal morphology as in the control group, with no modification nor any necrosis |
| N#N [nitrogen, reference compound] | significant expression of active caspase-3 | – | – | – | – |
| [Xe] [xenon, reference compound] | the active caspase-3 expression has been lost because of the serious acute tubular necrosis | – | some good effects | an effect greater than that which was obtained with the controls, but which is less than that obtained with argon | – |
